pIC50: −log10 of the molar value.
What was measured:
[1] = molecular target: N-terminal GST tagged recombinant human RET cytoplasmic domain (aa 658-end), wild type RET kinase (Homo sapiens (Human), UniProt P07949); assay: RET Enzyme Assay (HTRF KinEASE-TK), wild type RET; format: biochemical; settings: wild type RET, 1 mM ATP
[2] = molecular target: human KDR protein in HEK-293 cells (Homo sapiens (Human), UniProt P35968); assay: KDR Cell Assay (phospho-KDR in HEK-293 cells expressing inducible KDR); format: cell-based; settings: pKDR Cell HEK 10% FBS IC50, HEK-293 cells expressing inducible KDR, VEGF stimulated
human KDR protein in HEK-293 cells, sequence (P35968 20-1356): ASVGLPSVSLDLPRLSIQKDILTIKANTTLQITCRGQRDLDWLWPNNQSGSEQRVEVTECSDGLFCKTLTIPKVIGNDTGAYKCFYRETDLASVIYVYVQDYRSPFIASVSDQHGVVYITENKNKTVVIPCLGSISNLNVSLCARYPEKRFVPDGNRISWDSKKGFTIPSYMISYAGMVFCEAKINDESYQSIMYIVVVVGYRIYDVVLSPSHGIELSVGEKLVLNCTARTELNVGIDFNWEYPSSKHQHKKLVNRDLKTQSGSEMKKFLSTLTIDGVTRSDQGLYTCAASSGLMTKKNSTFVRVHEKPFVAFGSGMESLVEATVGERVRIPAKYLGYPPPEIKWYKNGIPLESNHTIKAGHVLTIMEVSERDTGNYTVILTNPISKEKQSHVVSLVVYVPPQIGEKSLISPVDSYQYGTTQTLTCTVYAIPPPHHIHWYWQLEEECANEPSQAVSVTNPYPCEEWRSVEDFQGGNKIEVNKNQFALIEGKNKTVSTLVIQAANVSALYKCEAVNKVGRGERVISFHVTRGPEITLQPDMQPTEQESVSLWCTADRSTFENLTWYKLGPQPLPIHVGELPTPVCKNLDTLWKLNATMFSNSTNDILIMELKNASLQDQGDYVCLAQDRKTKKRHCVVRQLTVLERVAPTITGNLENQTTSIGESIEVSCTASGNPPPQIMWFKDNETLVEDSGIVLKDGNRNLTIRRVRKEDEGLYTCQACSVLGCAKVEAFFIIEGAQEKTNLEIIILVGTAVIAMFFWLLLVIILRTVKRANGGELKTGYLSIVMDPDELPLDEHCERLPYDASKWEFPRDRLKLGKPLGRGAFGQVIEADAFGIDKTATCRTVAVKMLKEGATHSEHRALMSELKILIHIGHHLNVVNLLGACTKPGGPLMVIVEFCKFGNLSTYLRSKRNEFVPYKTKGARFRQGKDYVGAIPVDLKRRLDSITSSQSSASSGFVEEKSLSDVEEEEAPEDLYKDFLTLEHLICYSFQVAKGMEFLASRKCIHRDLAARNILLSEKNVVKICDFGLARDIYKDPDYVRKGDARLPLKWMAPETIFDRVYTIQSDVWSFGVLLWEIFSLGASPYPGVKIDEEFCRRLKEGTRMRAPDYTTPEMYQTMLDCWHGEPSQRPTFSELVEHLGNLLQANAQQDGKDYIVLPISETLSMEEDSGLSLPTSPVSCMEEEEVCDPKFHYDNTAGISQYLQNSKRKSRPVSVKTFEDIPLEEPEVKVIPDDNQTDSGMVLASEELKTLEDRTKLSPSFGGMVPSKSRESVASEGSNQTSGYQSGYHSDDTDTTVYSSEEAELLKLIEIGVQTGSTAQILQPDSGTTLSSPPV
Procedure, shortened: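 HEK-293 cells with inducible human KDR were treated with compound for 1 h in DMEM (0.25% DMSO final), then lysed. Phospho-KDR was quantified by Meso Scale immunoassay, expressed as percent of control, and IC50 taken where a 4-parameter logistic fit crossed 50 POC.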

N-terminal GST tagged recombinant human RET cytoplasmic domain (aa 658-end), wild type RET kinase, sequence (P07949 658-1114): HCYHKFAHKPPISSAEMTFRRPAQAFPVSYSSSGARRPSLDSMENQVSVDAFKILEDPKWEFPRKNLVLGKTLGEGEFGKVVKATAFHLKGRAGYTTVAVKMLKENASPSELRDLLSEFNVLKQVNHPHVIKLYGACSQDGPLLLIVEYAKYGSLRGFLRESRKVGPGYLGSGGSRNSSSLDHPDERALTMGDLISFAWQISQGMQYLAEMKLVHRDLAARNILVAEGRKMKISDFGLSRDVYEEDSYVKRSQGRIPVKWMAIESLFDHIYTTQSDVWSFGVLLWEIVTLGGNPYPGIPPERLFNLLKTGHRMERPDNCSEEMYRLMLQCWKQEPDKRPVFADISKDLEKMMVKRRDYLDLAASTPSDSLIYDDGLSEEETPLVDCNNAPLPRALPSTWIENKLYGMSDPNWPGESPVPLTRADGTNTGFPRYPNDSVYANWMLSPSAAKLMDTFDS

`Cc1cc(-c2cc(-c3cnn(C)c3)cn3ncc(C#N)c23)cnc1N1CCN(C(=O)CC(C)(C)C)CC1` [Example 279, 4-(6-(4-(3,3-dimethylbutanoyl)piperazin-1-yl)-5-methylpyridin-3-yl)-6-(1-methyl-1H-pyrazol-4-yl)pyrazolo[1,5-a]pyridine-3-carbonitrile] showed a pIC50 [1] of 6.50.
`Cn1cc(-c2cc(-c3ccc(N4CCN(C(=O)OC(C)(C)C)CC4)nc3)c3c(Br)cnn3c2)cn1` [Example 649, tert-butyl 4-(5-(3-bromo-6-(1-methyl-1H-pyrazol-4-yl)pyrazolo[1,5-a]pyridin-4-yl)pyridin-2-yl)piperazine-1-carboxylate] was tested, and the pIC50 [1] was 6.18.
In the case of `Cc1cnn2cc(-c3cnn(C)c3)cc(-c3ccc(N4CCN(C(=O)OC(C)(C)C)CC4)nc3)c12` [Example 650, tert-butyl 4-(5-(3-methyl-6-(1-methyl-1H-pyrazol-4-yl)pyrazolo[1,5-a]pyridin-4-yl)pyridin-2-yl)piperazine-1-carboxylate], the pIC50 [1] was 6.46.
With `CC(C)NC(=O)[C@H]1CCCN(c2ccc(-c3cc(-c4cnn(C)c4)cn4ncc(C#N)c34)cn2)C1` [Example 230, (S)-1-(5-(3-cyano-6-(1-methyl-1H-pyrazol-4-yl)pyrazolo[1,5-a]pyridin-4-yl)pyridin-2-yl)-N-isopropylpiperidine-3-carboxamide] the pIC50 [1] was 6.62.
In the case of `Cc1cc(CN2CCN(c3ccc(-c4cc(-c5cnn(C)c5)cn5ncc(C#N)c45)cn3)CC2)no1` [Example 436, 6-(1-methyl-1H-pyrazol-4-yl)-4-(6-(4-((5-methylisoxazol-3-yl)methyl)piperazin-1-yl)pyridin-3-yl)pyrazolo[1,5-a]pyridine-3-carbonitrile], the pIC50 [2] was 6.27.
In the case of `Cc1ccnc(CN2CCN(c3ccc(-c4cc(-c5cnn(C)c5)cn5ncc(C#N)c45)cn3)CC2)c1` [Example 443, 6-(1-methyl-1H-pyrazol-4-yl)-4-(6-(4-((4-methylpyridin-2-yl)methyl)piperazin-1-yl)pyridine-3-yl)pyrazolo[1,5-a]pyridine-3-carbonitrile], the pIC50 [2] was 6.19.
`Cn1cc(-c2cc(-c3ccc(N4CC[C@H](C(=O)NCCC(F)(F)F)C4)nc3)c3c(C#N)cnn3c2)cn1` [Example 262, (S)-1-(5-(3-cyano-6-(1-methyl-1H-pyrazol-4-yl)pyrazolo[1,5-a]pyridin-4-yl)pyridin-2-yl)-N-(3,3,3-trifluoropropyl)pyrrolidine-3-carboxamide] was tested, and the pIC50 ([2]; 10% FBS) was 6.21.
In the case of `Cn1cc(-c2cc(-c3ccc(N4CCN(CC(O)c5c(F)cccc5F)CC4)nc3)c3c(C#N)cnn3c2)cn1` (stereo not drawn) [Example 154, 4-(6-(4-(2-(2,6-difluorophenyl)-2-hydroxyethyl)piperazin-1-yl)pyridin-3-yl)-6-(1-methyl-1H-pyrazol-4-yl)pyrazolo[1,5-a]pyridine-3-carbonitrile], the pIC50 ([2]; 10% FBS) was 6.81.
Compound `Cc1cc(-c2cc(-c3cnn(C)c3)cn3ncc(C#N)c23)cnc1N1CCN(C(=O)[C@H](O)c2ccccc2)CC1` [Example 278, (R)-4-(6-(4-(2-hydroxy-2-phenylacetyl)piperazin-1-yl)-5-methylpyridin-3-yl)-6-(1-methyl-1H-pyrazol-4-yl)pyrazolo[1,5-a]pyridine-3-carbonitrile] has a pIC50 ([2]; 10% FBS) of 6.86.
For `Cn1cc(-c2cc(-c3ccc(N4CCN(C(=O)C[C@H](O)c5ccccc5)CC4)nc3)c3c(C#N)cnn3c2)cn1` [Example 8, (S)-4-(6-(4-(3-hydroxy-3-phenylpropanoyl)piperazin-1-yl)pyridin-3-yl)-6-(1-methyl-1H-pyrazol-4-yl)pyrazolo[1,5-a]pyridine-3-carbonitrile], the pIC50 ([2]; 10% FBS) was 7.00.
In the case of `COC(=O)N1CCN(c2ccc(-c3cc(-c4cnn(C)c4)cn4ncc(C#N)c34)cc2)CC1` [Example 298, Methyl 4-(4-(3-cyano-6-(1-methyl-1H-pyrazol-4-yl)pyrazolo[1,5-a]pyridin-4-yl)phenyl)piperazine-1-carboxylate], the pIC50 ([2]; 10% FBS) was 5.74.
With `Cn1cc(-c2cc(-c3ccc(N4CCN(C[C@@H](O)c5ccccc5)CC4)nc3)c3c(C#N)cnn3c2)cn1` [Example 162, (S)-4-(6-(4-(2-hydroxy-2-phenylethyl)piperazin-1-yl)pyridin-3-yl)-6-(1-methyl-1H-pyrazol-4-yl)pyrazolo[1,5-a]pyridine-3-carbonitrile] the pIC50 ([2]; 10% FBS) was 7.38.
`Cn1cc(-c2cc(-c3ccc(N4CCN(C(=O)CCc5cccnc5)CC4)nc3)c3c(C#N)cnn3c2)cn1` [Example 43, 6-(1-methyl-1H-pyrazol-4-yl)-4-(6-(4-(3-(pyridin-3-yl)propanoyl)piperazin-1-yl)pyridin-3-yl)pyrazolo[1,5-a]pyridine-3-carbonitrile bis(2,2,2-trifluoroacetate)] showed a pIC50 ([2]; 10% FBS) of 6.19.
`Cn1cc(-c2cc(-c3ccc(N4CCN(Cc5cccc(Cl)c5)CC4)nc3)c3c(C#N)cnn3c2)cn1` [Example 455, 4-(6-(4-(3-chlorobenzyl)piperazin-1-yl)pyridin-3-yl)-6-(1-yl)methyl-1H-pyrazol-4-pyrazolo[1,5-a]pyridine-3-carbonitrile] gave a pIC50 [2] of 6.33.
For `Cn1cc(-c2cc(-c3ccc(C4CCCN(Cc5ccccc5)C4)nc3)c3c(C#N)cnn3c2)cn1` (stereo not drawn) [Example 581, 4-(6-(1-benzylpiperidin-3-yl)pyridine-3-yl)-6-(1-methyl-1H-pyrazol-4-yl)pyrazolo[1,5-a]pyridine-3-carbonitrile], the pIC50 [2] was 6.17.
`C[C@@H](CO)Cn1cc(-c2cc(-c3ccc(N4CCN(C(=O)CC(C)(C)C)CC4)cc3)c3c(C#N)cnn3c2)cn1` [Example 306, (R)-4-(4-(4-(3,3-dimethylbutanoyl)piperazin-1-yl)phenyl)-6-(1-(3-hydroxy-2-methylpropyl)-1H-pyrazol-4-yl)pyrazolo[1,5-a]pyridine-3-carbonitrile] was tested, and the pIC50 ([2]; 10% FBS) was 6.06.
`Cn1cc(-c2cc(-c3ccc(N4CCN(C(=O)c5cccnc5)CC4)nc3)c3c(C#N)cnn3c2)cn1` [Example 73, 6-(1-methyl-1H-pyrazol-4-yl)-4-(6-(4-nicotinoylpiperazin-1-yl)pyridin-3-yl)pyrazolo[1,5-a]pyridine-3-carbonitrile] was tested, and the pIC50 ([2]; 10% FBS) was 6.53.
With `Cn1cc(-c2cc(-c3ccc(N4CCC5(CCN(C(=O)OC(C)(C)C)C5)CC4)nc3)c3c(C#N)cnn3c2)cn1` [Example 204, tert-butyl 8-(5-(3-cyano-6-(1-methyl-1H-pyrazol-4-yl)pyrazolo[1,5-a]pyridin-4-yl)pyridin-2-yl)-2,8-diazaspiro[4.5]decane-2-carboxylate] the pIC50 ([2]; 10% FBS) was 6.37.
Work on `Cn1cc(-c2cc(-c3ccc(N4CCN(Cc5ccn(C)n5)CC4)nc3)c3c(C#N)cnn3c2)cn1` [Example 439, 4-(6-(4-((1-methyl-1H-pyrazol-3-yl)methyl)piperazin-l-yl)pyridin-3-yl)-6-(1-methyl-1H-pyrazol-4-yl)pyrazolo[1,5-a]pyridine-3-carbonitrile] yielded a pIC50 [2] of 5.91.
Work on `CCCc1onc(C)c1C(=O)N1CCN(c2ccc(-c3cc(-c4cnn(C)c4)cn4ncc(C#N)c34)cn2)CC1` [Example 367, 4-yl)-4-(6-(4-(3-methyl-5-6-(1-methyl-1H-pyrazol-propylisoxazole-4-carbonyl)piperazin-1-yl)pyridin-3-yl)pyrazolo[1,5-a]pyridine-3-carbonitrile 2,2,2-trifluoroacetate] yielded a pIC50 ([2]; 10% FBS) of 6.45.
`Cn1cc(-c2cc(-c3ccc(N4CCC(N5CC[C@H](O)C5=O)CC4)nc3)c3c(C#N)cnn3c2)cn1` [Example 190, (S)-4-(6-(4-(3-hydroxy-2-oxopyrrolidin-1-yl)piperidin-1-yl)pyridin-3-yl)-6-(1-methyl-1H-pyrazol-4-yl)pyrazolo[1,5-a]pyridine-3-carbonitrile] gave a pIC50 ([2]; 10% FBS) of 6.56.
`Cn1cc(-c2cc(-c3ccc(N4CCC(NC(=O)[C@@H]5CCCO5)CC4)nc3)c3c(C#N)cnn3c2)cn1` [Example 182, (5)-N-(1-(5-(3-cyano-6-(1-methyl-1H-pyrazol-4-yl)pyrazolo[1,5-a]pyridin-4-yl)pyridin-2-yl)piperidin-4-yl)tetrahydrofuran-2-carboxamide] gave a pIC50 ([2]; 10% FBS) of 6.25.
Compound `Cn1cc(-c2cc(-c3ccc(N4CCC5(CCCN(C(=O)OC(C)(C)C)C5)C4)nc3)c3c(C#N)cnn3c2)cn1` (stereo not drawn) [Example 518, tert-butyl 2-(5-(3-cyano-6-(1-methyl-1H-pyrazol-4-yl)pyrazolo[1,5-a]pyridin-4-yl)pyridin-2-yl)-2,7-diazaspiro[4.5]decane-7-carboxylate] has a pIC50 [2] of 5.33.
`Cn1cc(-c2cc(-c3ccc(N4CCN(C(=O)Cc5c(F)cccc5F)CC4)nc3)c3c(C#N)cnn3c2)cn1` [Example 39, 4-(6-(4-(2-(2,6-difluorophenyl)acetyl)piperazin-1-yl)pyridin-3-yl)-6-(1-methyl-1H-pyrazol-4-yl)pyrazolo[1,5-a]pyridine-3-carbonitrile 2,2,2-trifluoroacetate] showed a pIC50 ([2]; 10% FBS) of 7.08.
With `Cn1cc(CN2CCN(c3ccc(-c4cc(-c5cnn(C)c5)cn5ncc(C#N)c45)cn3)CC2)cn1` [Example 448, 6-(1-methyl-1H-pyrazol-4-yl)-4-(6-(4-((1-methyl-1H-pyrazol-4-yl)methyl)piperazin-1-yl)pyridin-3-yl)pyrazolo[1,5-a]pyridine-3-carbonitrile] the pIC50 [2] was 5.76.
`Cn1cc(-c2cc(-c3ccc(N4CCN(C(=O)CC(C)(C)O)C5(CC5)C4)nc3)c3c(C#N)cnn3c2)cn1` [Example 168, 4-(6-(4-(3-hydroxy-3-methylbutanoyl)-4,7-diazaspiro[2.5]octan-7-yl)pyridin-3-yl)-6-(1-methyl-1H-pyrazol-4-yl)pyrazolo[1,5-a]pyridine-3-carbonitrile] was tested, and the pIC50 ([2]; 10% FBS) was 5.96.
`CN(C)C(C(=O)N1CCN(c2ccc(-c3cc(-c4cnn(C)c4)cn4ncc(C#N)c34)cn2)CC1)c1ccc(F)cc1` (stereo not drawn) [Example 351, 4-(6-(4-(2-(dimethylamino)-2-(4-fluorophenyl)acetyl)piperazin-1-yl)pyridin-3-yl)-6-(1-methyl-1H-pyrazol-4-yl)pyrazolo[1,5-a]pyridine-3-carbonitrile] gave a pIC50 ([2]; 10% FBS) of 5.76.

— US10023570B2 (Array BioPharma, Inc., priority 2015, dated 2018)
